Experimental data: PubChem BioAssay (NCI)
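Exposure lasted 48 hours, with cells grown in 96-well plates and compounds tested at five concentrations. Abbreviation: GI50, concentration required for 50% inhibition of growth. TGI: total growth inhibition.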

Experiments:
Experiment in all cases: DTP human tumour cell line panel, 48 h
OVCAR-4 ovarian = system: OVCAR-4 ovarian
HL-60(TB) leukemia = system: HL-60(TB) leukemia
SK-MEL-5 melanoma = system: SK-MEL-5 melanoma
T-47D breast = system: T-47D breast
CCRF-CEM leukemia = system: CCRF-CEM leukemia
OVCAR-5 ovarian = system: OVCAR-5 ovarian
NCI-H226 lung = system: NCI-H226 lung
SK-OV-3 ovarian = system: SK-OV-3 ovarian
DU-145 prostate = system: DU-145 prostate
SN12C renal = system: SN12C renal
SK-MEL-28 melanoma = system: SK-MEL-28 melanoma
MDA-MB-435 = system: MDA-MB-435
UACC-62 melanoma = system: UACC-62 melanoma
HS 578T breast = system: HS 578T breast
BT-549 breast = system: BT-549 breast
SNB-75 CNS = system: SNB-75 CNS
HOP-62 NSCLC = system: HOP-62 NSCLC
HCT-116 colon = system: HCT-116 colon
NCI/ADR-RES ovarian = system: NCI/ADR-RES ovarian
HT29 colon = system: HT29 colon
TK-10 renal = system: TK-10 renal
UO-31 renal = system: UO-31 renal
PC-3 prostate = system: PC-3 prostate
HCT-15 colon = system: HCT-15 colon
SF-268 CNS = system: SF-268 CNS
SF-539 CNS = system: SF-539 CNS
CAKI-1 renal = system: CAKI-1 renal
NCI-H522 lung = system: NCI-H522 lung
MOLT-4 leukemia = system: MOLT-4 leukemia
ACHN renal = system: ACHN renal
K-562 leukemia = system: K-562 leukemia
SF-295 CNS = system: SF-295 CNS
M14 melanoma = system: M14 melanoma
U251 CNS = system: U251 CNS
LOX IMVI melanoma = system: LOX IMVI melanoma
SK-MEL-2 melanoma = system: SK-MEL-2 melanoma
SW-620 colon = system: SW-620 colon
MALME-3M melanoma = system: MALME-3M melanoma
MDA-MB-231 breast = system: MDA-MB-231 breast
OVCAR-8 ovarian = system: OVCAR-8 ovarian
RXF 393 renal = system: RXF 393 renal
SR leukemia = system: SR leukemia
786-0 renal = system: 786-0 renal
MCF7 breast = system: MCF7 breast
IGROV1 ovarian = system: IGROV1 ovarian
OVCAR-3 ovarian = system: OVCAR-3 ovarian
A498 renal = system: A498 renal
NCI-H23 lung = system: NCI-H23 lung
COLO 205 colon = system: COLO 205 colon
KM12 colon = system: KM12 colon
NCI-H460 lung = system: NCI-H460 lung
SNB-19 CNS = system: SNB-19 CNS
EKVX NSCLC = system: EKVX NSCLC
HCC-2998 colon = system: HCC-2998 colon
A549 NSCLC = system: A549 NSCLC
UACC-257 melanoma = system: UACC-257 melanoma
HOP-92 NSCLC = system: HOP-92 NSCLC
RPMI-8226 leukemia = system: RPMI-8226 leukemia

CC(C)(C)NC/C(=C\c1ccccc1)C(=O)c1ccccc1
GI50 (OVCAR-4 ovarian): 5.6 µM
TGI (OVCAR-4 ovarian): 19.6 µM
GI50 (HL-60(TB) leukemia): 2.59 µM
TGI (HL-60(TB) leukemia): 14.1 µM
GI50 (SK-MEL-5 melanoma): 1.53 µM
TGI (SK-MEL-5 melanoma): 2.91 µM
GI50 (T-47D breast): 2.19 µM
TGI (T-47D breast): 8.98 µM
GI50 (CCRF-CEM leukemia): 0.936 µM
TGI (CCRF-CEM leukemia): 51.7 µM
GI50 (OVCAR-5 ovarian): 2.33 µM
TGI (OVCAR-5 ovarian): 4.48 µM
GI50 (NCI-H226 lung): 2.2 µM
TGI (NCI-H226 lung): 11.2 µM
GI50 (SK-OV-3 ovarian): 3.83 µM
TGI (SK-OV-3 ovarian): 13.8 µM
GI50 (DU-145 prostate): 2.68 µM
TGI (DU-145 prostate): 9.63 µM
GI50 (SN12C renal): 1.95 µM
TGI (SN12C renal): 6.34 µM
GI50 (SK-MEL-28 melanoma): 1.9 µM
TGI (SK-MEL-28 melanoma): 3.75 µM
GI50 (MDA-MB-435): 2.51 µM
TGI (MDA-MB-435): 12.8 µM
GI50 (UACC-62 melanoma): 1.51 µM
TGI (UACC-62 melanoma): 4.91 µM
GI50 (HS 578T breast): 6.11 µM
TGI (HS 578T breast): 60.7 µM
GI50 (BT-549 breast): 2.03 µM
TGI (BT-549 breast): 4.39 µM
GI50 (SNB-75 CNS): 4.67 µM
TGI (SNB-75 CNS): 17.9 µM
GI50 (HOP-62 NSCLC): 3.44 µM
TGI (HOP-62 NSCLC): 11.4 µM
GI50 (HCT-116 colon): 1.18 µM
TGI (HCT-116 colon): 2.58 µM
GI50 (NCI/ADR-RES ovarian): 2.31 µM
TGI (NCI/ADR-RES ovarian): 10.8 µM
GI50 (HT29 colon): 0.9 µM
TGI (HT29 colon): 3.52 µM
GI50 (TK-10 renal): 0.94 µM
TGI (TK-10 renal): 2.28 µM
GI50 (UO-31 renal): 1.41 µM
TGI (UO-31 renal): 2.88 µM
GI50 (PC-3 prostate): 3.44 µM
TGI (PC-3 prostate): 13 µM
GI50 (HCT-15 colon): 1.56 µM
TGI (HCT-15 colon): 7.16 µM
GI50 (SF-268 CNS): 3.8 µM
TGI (SF-268 CNS): 21 µM
GI50 (SF-539 CNS): 3.01 µM
TGI (SF-539 CNS): 7.2 µM
GI50 (CAKI-1 renal): 1.88 µM
TGI (CAKI-1 renal): 6.36 µM
GI50 (NCI-H522 lung): 0.371 µM
TGI (NCI-H522 lung): 1.77 µM
GI50 (MOLT-4 leukemia): 2.23 µM
TGI (MOLT-4 leukemia): 45.9 µM
GI50 (ACHN renal): 1.45 µM
TGI (ACHN renal): 3.62 µM
GI50 (K-562 leukemia): 2.24 µM
TGI (K-562 leukemia): 12.4 µM
GI50 (SF-295 CNS): 2.86 µM
TGI (SF-295 CNS): 11.4 µM
GI50 (M14 melanoma): 1.8 µM
TGI (M14 melanoma): 4.2 µM
GI50 (U251 CNS): 2.3 µM
TGI (U251 CNS): 6.41 µM
GI50 (LOX IMVI melanoma): 1.3 µM
TGI (LOX IMVI melanoma): 2.89 µM
GI50 (SK-MEL-2 melanoma): 2.01 µM
TGI (SK-MEL-2 melanoma): 5.02 µM
GI50 (SW-620 colon): 1.22 µM
TGI (SW-620 colon): 3.5 µM
GI50 (MALME-3M melanoma): 2.04 µM
TGI (MALME-3M melanoma): 4.88 µM
GI50 (MDA-MB-231 breast): 2.72 µM
TGI (MDA-MB-231 breast): 8.12 µM
GI50 (OVCAR-8 ovarian): 2.82 µM
TGI (OVCAR-8 ovarian): 10.1 µM
TGI (RXF 393 renal): 2.37 µM
GI50 (SR leukemia): 1.67 µM
TGI (SR leukemia): 8.68 µM
GI50 (786-0 renal): 1.95 µM
TGI (786-0 renal): 4.01 µM
GI50 (MCF7 breast): 1.08 µM
TGI (MCF7 breast): 10.4 µM
GI50 (IGROV1 ovarian): 2.78 µM
TGI (IGROV1 ovarian): 8.99 µM
GI50 (OVCAR-3 ovarian): 1.19 µM
TGI (OVCAR-3 ovarian): 3.19 µM
GI50 (A498 renal): 1.8 µM
TGI (A498 renal): 3.64 µM
GI50 (NCI-H23 lung): 1.77 µM
TGI (NCI-H23 lung): 5.02 µM
GI50 (COLO 205 colon): 1.34 µM
TGI (COLO 205 colon): 2.88 µM
GI50 (KM12 colon): 3.01 µM
TGI (KM12 colon): 24.4 µM
GI50 (NCI-H460 lung): 1.88 µM
TGI (NCI-H460 lung): 4.57 µM
GI50 (SNB-19 CNS): 4.27 µM
TGI (SNB-19 CNS): 18.4 µM
GI50 (EKVX NSCLC): 3.29 µM
TGI (EKVX NSCLC): 13.6 µM
GI50 (HCC-2998 colon): 1.74 µM
TGI (HCC-2998 colon): 3.35 µM
GI50 (A549 NSCLC): 2.75 µM
TGI (A549 NSCLC): 8.23 µM
GI50 (UACC-257 melanoma): 2.12 µM
TGI (UACC-257 melanoma): 6.91 µM
GI50 (HOP-92 NSCLC): 2.4 µM
TGI (HOP-92 NSCLC): 6.56 µM
GI50 (RPMI-8226 leukemia): 2.14 µM
TGI (RPMI-8226 leukemia): 7.31 µM
